Holding throughout (test): DTP human tumour cell line panel, 48 h
Assay [1] concerns A549.
The test system of assay [2] is COLO 205.
The test system of assay [3] is DU-145.
The test system of assay [4] is HCC 2998.
Assay [5] relates to IGROV-1.
Assay [6] concerns NCI-H460.
The test system of assay [7] is NCI-H522.
Assay [8] relates to NCI/ADR-RES.
In assay [9] the test system is OVCAR-4.
Assay [10] relates to OVCAR-5.
The subject of assay [11] is RXF 393.
For assay [12], the system named is SF-295.
The test system of assay [13] is SF-539.
Assay [14] relates to SK-MEL-2.
Assay [15] concerns SK-OV-3.
The test system of assay [16] is SN12C.
In assay [17] the test system is SR.
Assay [18] deals with TK-10.
Assay [19] deals with U-251.
Assay [20] has as its system UACC-257.

Structures are written as SMILES.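 Compound exposure: 48 hours, 5 concentrations, 96-well plates. At the GI50, growth is halved.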 Active and inactive are the calls of the source. Cut-off read from the data, not from the text of the source: active = GI50 up to about 1.1 µM and inactive = higher.

In general, GI50 refers to the concentration at which growth is held to half of that of the control. As to `Cc1ccc2c(c1)C1(C)OC(C=CC1=O)O2` (stereo not given), the GI50 in assay [1] was 3.24 µM (inactive); in assay [2], 0.384 µM (active); in assay [3] it was 2.72 µM (inactive); in assay [4] it was 2.84 µM (inactive); in [5], 2.18 µM (inactive); in assay [6], 2.21 µM (inactive). For the same compound, the GI50 in assay [7] was 0.0769 µM (active); in [8], 0.0681 µM (active); in [9], 0.774 µM (active); in assay [10] it was 1.85 µM (inactive); in [11] it was 0.445 µM (active); in assay [12] it was 2.79 µM (inactive). In addition, the GI50 is 0.488 µM (active) in assay [13]; 1.77 µM (inactive) in assay [14]; 3.24 µM (inactive) in assay [15]; 0.308 µM (active) in assay [16]; 0.106 µM (active) in [17]; 1.4 µM (inactive) in assay [18]. The figures for the GI50 in assay [19] and in assay [20] were 0.29 µM (active) and 1.01 µM (active), respectively.
On to `CC[C@@]1(O)C(=O)OCc2c1c(Cl)c1n(c2=O)Cc2cc3ccccc3nc2-1`, for which the GI50 in assay [1] is 2.06 µM (inactive); in assay [2] it was 5.52 µM (inactive); in assay [3] it was 1.92 µM (inactive); in [4], 3.4 µM (inactive); in assay [5], 4.08 µM (inactive); in [6] it was 0.383 µM (active). Besides, the GI50 in assay [7] is 1.69 µM (inactive); in assay [8], 1.8 µM (inactive); in assay [9], 8.97 µM (inactive); in assay [10], 5.07 µM (inactive); in assay [11] it was 2.52 µM (inactive); in [12], 1.22 µM (inactive). For the same compound, the GI50 was 2.08 µM (inactive) in assay [13]; 12.3 µM (inactive) in assay [14]; 4.24 µM (inactive) in assay [15]; 2.7 µM (inactive) in assay [16]; 0.27 µM (active) in assay [17]; 19 µM (inactive) in assay [18]. Besides, the figures for the concentration for 50% growth inhibition (GI50) in assay [19] and in assay [20] were 1.07 µM (active) and 2.39 µM (inactive), respectively.
In the case of `CN(C)Cc1c(O)ccc2c1c1c(n2C)C(=O)c2ccccc2C1=O`, the GI50 is 2.51 µM (inactive) in [1]; 6.76 µM (inactive) in assay [2]; 3.75 µM (inactive) in [3]; 3.45 µM (inactive) in assay [4]; 3.73 µM (inactive) in assay [5]; 1.85 µM (inactive) in assay [6]. Also, the GI50 in assay [7] is 3.95 µM (inactive); in assay [8] it was 2.73 µM (inactive); in assay [9], 4.28 µM (inactive); in assay [10], 4.16 µM (inactive); in [11] it was 12.4 µM (inactive); in assay [12] it was 6.17 µM (inactive). Moreover, the GI50 in [13] is 10.3 µM (inactive); in assay [14], 5.31 µM (inactive); in assay [15], 20.2 µM (inactive); in assay [16], 3.62 µM (inactive); in [17], 1.06 µM (active); in assay [18], 7.41 µM (inactive). For the same compound, the GI50 is 4.52 µM (inactive) in assay [19] and 5.24 µM (inactive) in assay [20].
Turning to `COC(=O)[C@]1(c2cc3ccccc3[nH]2)CC2CNC1C1OC(C)(C)OC21` (stereo not given in full), the GI50 in [1], in assay [2], in assay [3], in assay [4], in assay [5] and in [6] was > 100 µM (inactive) each time. For the same compound, the GI50 in assay [7] was > 100 µM (inactive); in [8] it was > 100 µM (inactive); in assay [9], > 100 µM (inactive); in [10], > 100 µM (inactive); in assay [11] it was 60.1 µM (inactive); in assay [12] it was > 100 µM (inactive). Further, the GI50 in [13] was > 100 µM (inactive); in assay [14], > 100 µM (inactive); in assay [15], > 100 µM (inactive); in assay [16], > 100 µM (inactive); in assay [17], 47.9 µM (inactive); in assay [18], > 100 µM (inactive). Further, the GI50 in [19] and in assay [20] was > 100 µM (inactive) throughout.

Source of the values: ChEMBL document CHEMBL1201862, “PubChem BioAssay data set” (2004).
